Experimental data from patent US20200031866A1, “PEPTIDE INHIBITORS OF SODIUM CHANNELS” (SPYRYX BIOSCIENCES, INC., priority 2016, published 2020).
Where two headings read alike, the source gives them in different places. Square brackets hold non-standard residues; d marks the D form. Peptide text beside a SMILES is read from it.

How the values were obtained:
[1] = system: βENaC-Tg mice; format: in vivo
Excerpt: Like CF patients, βENaC-Tg mice are disease free at birth, but soon develop obstructive lung disease (Zhou, Z., et al. Am J Respir Crit Care Med 178, 1245-1256 (2008)). C57BL:FVB and C57BL:C3H mixed strains have 90% and 50% mortality, respectively, and the reproducibility of the disease on these backgrounds is sufficiently high that reliable data are produced with n of about 8-10 animals/group. Furthermore, the βENaC-Tg mouse responds to therapeutic interventions in a fashion similar to CF/COPD in humans, and the development of lung disease can be prevented following inhibition of lung disease at birth (Livraghi, A., et al. J Immunol 182, 4357-4367 (2009)). S18-derived peptides or vehicle were dosed one to three times a day by intranasal instillation (1 μl/g body weight) for 14 days in parallel cohorts of mice. Mice were weighed daily and, if a diuretic effect was found, the volume excreted was replaced by sub-cutaneous injections of sterile saline. At the end of the treatment, mice were sacrificed for phenotypic analysis.

[2] = target: T1, alpha-ENaC (Homo sapiens, UniProt P37088+P51168+P51170); experiment: Internalization of alpha-ENaC in HEK293T cells, GFP-tagged alpha-ENaC co-expressed with beta and gamma ENaC; format: cell-based; conditions: beta-ENaC co-expressed, FIGS. 5A-5U
T1 construct: expressed in transfected cells; host or cells: HEK293T
T1 sequence (P37088 1-669): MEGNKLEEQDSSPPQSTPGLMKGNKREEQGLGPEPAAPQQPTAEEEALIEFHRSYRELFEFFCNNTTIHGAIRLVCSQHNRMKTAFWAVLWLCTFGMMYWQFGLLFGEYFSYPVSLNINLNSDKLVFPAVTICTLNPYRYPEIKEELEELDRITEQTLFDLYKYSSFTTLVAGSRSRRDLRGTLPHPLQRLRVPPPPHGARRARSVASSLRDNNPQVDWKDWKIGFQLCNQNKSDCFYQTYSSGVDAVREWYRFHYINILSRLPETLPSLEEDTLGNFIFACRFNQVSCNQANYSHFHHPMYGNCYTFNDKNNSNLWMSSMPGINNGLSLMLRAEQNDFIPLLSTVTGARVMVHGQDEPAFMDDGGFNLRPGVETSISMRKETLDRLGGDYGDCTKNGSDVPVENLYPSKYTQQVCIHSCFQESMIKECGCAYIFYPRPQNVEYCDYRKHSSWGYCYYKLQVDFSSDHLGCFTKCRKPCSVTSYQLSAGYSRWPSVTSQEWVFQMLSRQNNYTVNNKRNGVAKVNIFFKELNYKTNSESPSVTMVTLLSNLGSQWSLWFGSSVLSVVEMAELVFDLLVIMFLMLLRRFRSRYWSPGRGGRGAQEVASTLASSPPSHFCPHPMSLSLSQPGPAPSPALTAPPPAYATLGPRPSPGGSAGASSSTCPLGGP
T1 sequence (P51168 1-640): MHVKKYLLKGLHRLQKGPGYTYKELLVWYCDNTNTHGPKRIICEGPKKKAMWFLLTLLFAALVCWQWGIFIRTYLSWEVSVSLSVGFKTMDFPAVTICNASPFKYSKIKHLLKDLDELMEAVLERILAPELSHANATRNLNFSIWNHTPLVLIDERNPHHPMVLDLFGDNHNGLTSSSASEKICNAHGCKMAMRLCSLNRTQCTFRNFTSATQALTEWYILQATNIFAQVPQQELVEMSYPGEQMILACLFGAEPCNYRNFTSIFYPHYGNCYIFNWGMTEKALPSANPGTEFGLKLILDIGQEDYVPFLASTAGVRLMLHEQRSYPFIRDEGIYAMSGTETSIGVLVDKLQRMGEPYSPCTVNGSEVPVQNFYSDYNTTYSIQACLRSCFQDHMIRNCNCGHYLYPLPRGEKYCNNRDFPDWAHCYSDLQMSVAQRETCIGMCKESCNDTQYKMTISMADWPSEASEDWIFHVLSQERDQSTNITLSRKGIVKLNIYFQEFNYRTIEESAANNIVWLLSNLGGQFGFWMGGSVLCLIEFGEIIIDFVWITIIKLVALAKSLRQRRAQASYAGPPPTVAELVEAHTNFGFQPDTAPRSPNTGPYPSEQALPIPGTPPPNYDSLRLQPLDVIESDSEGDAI
T1 sequence (P51170 1-649): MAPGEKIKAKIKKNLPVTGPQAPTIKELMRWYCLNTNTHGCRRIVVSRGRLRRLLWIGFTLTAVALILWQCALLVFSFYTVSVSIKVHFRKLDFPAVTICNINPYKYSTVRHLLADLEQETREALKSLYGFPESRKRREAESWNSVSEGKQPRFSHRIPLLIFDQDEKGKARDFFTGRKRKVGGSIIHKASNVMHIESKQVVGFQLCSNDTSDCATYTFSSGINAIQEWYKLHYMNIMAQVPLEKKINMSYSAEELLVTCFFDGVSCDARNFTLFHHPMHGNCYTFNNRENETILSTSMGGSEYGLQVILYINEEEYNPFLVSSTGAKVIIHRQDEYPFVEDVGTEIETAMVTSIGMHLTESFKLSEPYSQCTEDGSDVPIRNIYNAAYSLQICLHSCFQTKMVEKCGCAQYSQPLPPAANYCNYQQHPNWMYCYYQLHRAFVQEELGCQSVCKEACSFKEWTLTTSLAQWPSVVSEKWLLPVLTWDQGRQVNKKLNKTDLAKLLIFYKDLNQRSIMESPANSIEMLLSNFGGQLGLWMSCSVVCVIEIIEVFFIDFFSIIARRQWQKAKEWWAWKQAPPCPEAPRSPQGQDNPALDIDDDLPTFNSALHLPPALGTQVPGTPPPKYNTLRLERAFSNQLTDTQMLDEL
Excerpt: HEK293T cells were transfected with gfp-αENaC where gfp was fused at the N-terminus of ENaC and unlabeled βENaC and γENaC using lipofectamine in 384 well plates as per the manufacturer's instructions and as published previously (see, e.g., Hobbs et al. Am J Physiol Lung Cell Mol Physiol. 2013 December; 305(12):L990-L1001. doi: 10.1152/ajplung.00103.2013. Epub 2013 October; Garland et al. Proc Natl Acad Sci USA. 2013 Oct. 1; 110(40):15973-8. doi: 10.1073/pnas.1311999110. Epub 2013 Sep. 16.; Tan et al. J Physiol. 2014 Dec. 1; 592(Pt 23):5251-68). Twenty-four hours later, peptide or vehicle control were added at t=0 and fluorescence was read using a Tecan M1000 plate reader 3 h later. Fluorescence was read at 488 nm (excitation)/510 nm (emission).

[3] = target: T2, epithelial sodium channels (Homo sapiens, UniProt P37088+P51168+P51170); experiment: Airway surface liquid hyper absorption in human bronchial epithelial cultures from CF patients; format: cell-based
T2 construct: human bronchial epithelial cultures from CF patients; endogenous in cells; host or cells: human bronchial epithelial cultures from CF patients
T2 sequence (P37088 1-669): T1 sequence (P37088 1-669)
T2 sequence (P51168 1-640): T1 sequence (P51168 1-640)
T2 sequence (P51170 1-649): T1 sequence (P51170 1-649)

CC[C@H](C)[C@H](NC(=O)[C@@H]1CCCN1C(=O)[C@H](CC(C)C)NC(=O)[C@@H](C)NC(=O)[C@@H](C)N)C(=O)N1CCC[C@H]1C(=O)N[C@@H](CC(C)C)C(=O)N[C@@H](CC(=O)O)C(=O)N[C@@H](CCC(N)=O)C(=O)N[C@H](C(=O)N[C@H](C)C(=O)N[C@H](C)C(N)=O)[C@@H](C)O [SEQ ID NO:128, aaLPIPLDQTaa] (H-[dA][dA]LPIPLDQT[dA][dA]-NH2)
percent survival ([1]; βENaC-Tg C57BL:C3H mice, fourteen-day treatment, FIGS. 7C, 7D, 7F): increased percent survival
percent survival ([1]; βENaC-Tg C57BL:C3H mice, once daily dosing, FIG. 7E left panel): increased percent survival
percent survival ([1]; βENaC-Tg C57BL:FVB mice, fourteen-day inhaled treatment, FIG. 7B): more effective than inhaled SEQ ID NO:142 at increasing percent survival
reduction of alpha-ENaC / functional receptor on the cell surface [2]: effective in reducing alpha-ENaC
duration of prevention of airway surface liquid hyper absorption following a single dose [3]: > 8 h
